Laboratory results reported in patent publication US7442805B2, “Substituted sulfonamide-indoles” (Wyeth, priority 2003, dated 2008).
pIC50: −log10 of the molar value.

Tests used:
[1] = molecular target: T1, recombinant human plasminogen activator inhibitor-1 (PAI-1) (Homo sapiens, UniProt P05121); test: Primary screen for the PAI-1 inhibition (chromogenic tPA activity assay); assay type: biochemical; conditions: pH 6.6, 140 nM PAI-1, 70 nM tPA; for inhibition at 10 µM: 10 μM test compound; for inhibition at 25 µM: 25 μM test compound
T1 construct: purchased Molecular Innovations, Royal Oak, Mich
Description: Primary Screen for the PAI-1 Inhibition
Test compounds are dissolved in DMSO at a final concentration of 10 mM, then diluted 100× in physiologic buffer. The inhibitory assay is initiated by the addition of the test compound (1-100 μM final concentration, maximum DMSO concentration of 0.2%) in a pH 6.6 buffer containing 140 nM recombinant human plasminogen activator inhibitor-1 (PAI-1; Molecular Innovations, Royal Oak, Mich.). Following a 1 hour incubation at room temperature, 70 nM of recombinant human tissue plasminogen activator (tPA) is added, and the combination of the test compound, PAI-1 and tPA is incubated for an additional 30 minutes. Following the second incubation, Spectrozyme-tPA (American Diagnostica, Greenwich, Conn.), a chromogenic substrate for tPA, is added and absorbance read at 405 nm at 0 and 60 minutes. Relative PAI-1 inhibition is equal to the residual tPA activity in the presence of the test compound and PAI-1. Control treatments include the complete inhibition of tPA by PAI-1 at the molar ratio employed (2:1), and the absence of any effect of the test compound on tPA alone.

[2] = molecular target: human PAI-1 (Homo sapiens, UniProt P05121); test: Assay for determining IC50 of inhibition of PAI-1 (tPA-coated plate, antibody detection of active PAI-1); assay type: binding; conditions: active PAI-1 bound to tPA-coated plate; pH 7.5
Description: Assay for determining IC50 of Inhibition of PAI-1
This assay is based upon the non-SDS dissociable interaction between tPA and active PAI-1. Assay plates are initially coated with human tPA (10 μg/ml). Test compounds of the present invention are dissolved in DMSO at 10 mM, then diluted with physiologic buffer (pH 7.5) to a final concentration of […]. Test compounds are incubated with human PAI-1 (50 ng/ml) for 15 minutes at room temperature. The tPA-coated plate is washed with a solution of 0.05% Tween 20 and 0.1% BSA, then the plate is blocked with a solution of 3% BSA. An aliquot of the substituted sulfonamide indole/PAI-1 solution is then added to the tPA-coated plate, incubated at room temperature for 1 hour, and washed. Active PAI-1 bound to the plate is assessed by adding an aliquot of a 1:1000 dilution of the 33B8 monoclonal antibody against human PAI-1, and incubating the plate at room temperature for 1 hour (Molecular Innovations, Royal Oak, Mich.). The plate is again washed, and a solution of goat anti-mouse IgG-alkaline phosphatase conjugate is added at a 1:50,000 dilution in goat serum. The plate is incubated 30 minutes at room temperature, washed, and a solution of alkaline phosphatase substrate is added. The plate is incubated 45 minutes at room temperature, and color development is determined at OD405 nm. The quantitation of active PAI-1 bound to tPA at varying concentrations of the test compound is used to determine the IC50. Results are analyzed using a logarithmic best-fit equation. The assay sensitivity is 5 ng/ml of human PAI-1 as determined from a standard curve ranging from 0-100 ng/ml.

human PAI-1, sequence (P05121 24-402): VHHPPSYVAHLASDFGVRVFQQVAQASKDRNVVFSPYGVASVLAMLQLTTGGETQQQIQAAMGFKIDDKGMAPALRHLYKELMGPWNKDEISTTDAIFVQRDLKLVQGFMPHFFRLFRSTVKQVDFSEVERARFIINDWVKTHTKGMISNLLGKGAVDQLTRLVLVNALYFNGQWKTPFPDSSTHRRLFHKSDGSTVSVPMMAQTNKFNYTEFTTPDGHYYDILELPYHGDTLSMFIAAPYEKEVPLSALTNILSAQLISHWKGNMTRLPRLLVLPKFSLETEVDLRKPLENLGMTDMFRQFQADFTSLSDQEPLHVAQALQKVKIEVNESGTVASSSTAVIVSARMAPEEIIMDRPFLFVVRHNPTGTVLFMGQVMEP
T1 sequence (P05121 24-402): as above

Compound | inhibition at 10 µM [1] | inhibition at 25 µM [1] | pIC50 [2]
CC(C)C[C@H](NC(=O)c1c(-c2ccccc2)c2cc(NS(=O)(=O)c3ccc(OC(F)(F)F)cc3)ccc2n1C)C(=O)O [Example 8, N-{[1-methyl-3-phenyl-5-({[4-(trifluoromethoxy)phenyl]sulfonyl}amino)-1H-indol-2-yl]carbonyl}-L-leucine] | 18% | 73% | –
Cn1c(C(=O)N[C@@H](Cc2ccccc2)C(=O)O)c(-c2ccccc2)c2cc(NS(=O)(=O)c3ccc(C(C)(C)C)cc3)ccc21 [Example 11, N-[(5-{[(4-tert-butylphenyl)sulfonyl]amino}-1-methyl-3-phenyl-1H-indol-2-yl)carbonyl]-L-phenylalanine] | 15% | 77% | –
Cn1c(C(=O)O)c(-c2ccccc2)c2cc(NS(=O)(=O)c3ccc(-c4ccccc4)cc3)ccc21 [Example 7, 5-[(1,1′-biphenyl-4-ylsulfonyl)amino]-1-methyl-3-phenyl-1H-indole-2-carboxylic acid] | 11% | 68% | –
Cn1c(C(=O)N[C@@H](Cc2ccccc2)C(=O)O)c(-c2ccccc2)c2cc(NS(=O)(=O)c3ccc(-c4ccccc4)cc3)ccc21 [Example 9, N-({5-[(1,1′-biphenyl-4-ylsulfonyl)amino]-1-methyl-3-phenyl-1H-indol-2-yl}carbonyl)-L-phenylalanine] | 8% | 73% | –
Cn1c(C(=O)O)c(-c2ccccc2)c2cc(NS(=O)(=O)c3ccc(OC(F)(F)F)cc3)ccc21 [Example 5, 1-methyl-3-phenyl-5-({[4-(trifluoromethoxy)phenyl]sulfonyl}amino)-1H-indole-2-carboxylic acid] | – | 19% | –
Cn1c(C(=O)O)c(-c2ccccc2)c2cc(NS(=O)(=O)c3ccc(C(C)(C)C)cc3)ccc21 [Example 6, 5-{[(4-tert-butylphenyl)sulfonyl]amino}-1-methyl-3-phenyl-1H-indole-2-carboxylic acid] | – | 46% | –
O=C(O)c1c(-c2ccccc2)c2cc(NS(=O)(=O)c3ccc(-c4ccccc4)cc3)ccc2n1Cc1ccccc1 [Example 4, 1-benzyl-5-[(1,1′-biphenyl-4-ylsulfonyl)amino]-3-phenyl-1H-indole-2-carboxylic acid] | 44% | 61% | 4.64
O=C(O)c1c(-c2ccccc2)c2cc(NS(=O)(=O)c3ccc(OC(F)(F)F)cc3)ccc2n1Cc1ccccc1 [Example 1, 1-benzyl-3-phenyl-5-({[4-(trifluoromethoxy)phenyl]sulfonyl}amino)-1H-indole-2-carboxylic acid] | 33% | 81% | 5.08
CC(C)C[C@H](NC(=O)c1c(-c2ccccc2)c2cc(NS(=O)(=O)c3ccc(-c4ccccc4)cc3)ccc2n1C)C(=O)O [Example 10, N-({5-[(1,1′-biphenyl-4-ylsulfonyl)amino]-1-methyl-3-phenyl-1H-indol-2-yl}carbonyl)-L-leucine] | 15% | 74% | –
O=C(O)c1c(-c2ccccc2)c2cc(NS(=O)(=O)c3cccc4cccnc34)ccc2n1Cc1ccccc1 [Example 2, 1-benzyl-3-phenyl-5-[(quinolin-8-ylsulfonyl)amino]-1H-indole-2-carboxylic acid] | 8% | 43% | –
CC(C)(C)c1ccc(S(=O)(=O)Nc2ccc3c(c2)c(-c2ccccc2)c(C(=O)O)n3Cc2ccccc2)cc1 [Example 3, 1-benzyl-5-{[(4-tert-butylphenyl)sulfonyl]amino}-3-phenyl-1H-indole-2-carboxylic acid] | 41% | 82% | 4.54

More lines, now with the values ahead:

inhibition at 10 µM [1] | inhibition at 25 µM [1] | pIC50 [2] | Compound
20% | 81% | 4.55 | CC(C)(C)c1ccc(S(=O)(=O)Nc2ccc3[nH]c(C(=O)O)c(-c4ccccc4)c3c2)cc1 [Example 20, 5-{[(4-tert-butylphenyl)sulfonyl]amino}-3-phenyl-1H-indole-2-carboxylic acid]
19% | 55% | – | O=C(O)c1c(-c2ccc3[nH]ccc3c2)c2cc(NS(=O)(=O)c3ccccc3)ccc2n1Cc1ccccc1 [Example 18, 1-benzyl-5-[(phenylsulfonyl)amino]-1H,1′H-3,5′-biindole-2-carboxylic acid]
24% | 62% | – | CS(=O)(=O)Nc1ccc2c(c1)c(-c1ccccc1)c(C(=O)O)n2Cc1ccc(-c2ccccc2)cc1 [Example 13, 1-(1,1′-biphenyl-4-ylmethyl)-5-[(methylsulfonyl)amino]-3-phenyl-1H-indole-2-carboxylic acid]
29% | 86% | 4.71 | O=C(O)c1[nH]c2ccc(NS(=O)(=O)c3ccc(-c4ccccc4)cc3)cc2c1-c1ccccc1 [Example 21, 5-[(1,1′-biphenyl-4-ylsulfonyl)amino]-3-phenyl-1H-indole-2-carboxylic acid]
14% | 64% | – | CC(C)C[C@H](NC(=O)c1c(-c2ccccc2)c2cc(NS(=O)(=O)c3ccc(C(C)(C)C)cc3)ccc2n1C)C(=O)O [Example 12, N-[(5-{[(4-tert-butylphenyl)sulfonyl]amino}-1-methyl-3-phenyl-1H-indol-2-yl)carbonyl]-L-leucine]
77% | 87% | 4.55 | O=C(O)c1c(-c2ccccc2)c2cc(NS(=O)(=O)c3ccccc3)ccc2n1Cc1ccc(-c2ccccc2)cc1 [Example 14, 1-(1,1′-biphenyl-4-ylmethyl)-3-phenyl-5-[(phenylsulfonyl)amino]-1H-indole-2-carboxylic acid]
43% | 84% | – | CC(C)(C)c1ccc(-c2c(C(=O)O)n(Cc3ccccc3)c3ccc(NS(=O)(=O)c4ccc(OC(F)(F)F)cc4)cc23)cc1 [Example 17, 1-Benzyl-3-(4-tert-butylphenyl)-5-({[4-(trifluoromethoxy)phenyl]sulfonyl}amino)-1H-indole-2-carboxylic acid]
68% | 89% | – | O=C(O)c1c(-c2ccccc2)c2cc(NS(=O)(=O)c3ccccc3)ccc2n1C(c1ccccc1)c1ccccc1 [Example 16, 1-benzhydryl-3-phenyl-5-[(phenylsulfonyl)amino]-1H-indole-2-carboxylic acid]
12% | 50% | – | O=C(O)c1[nH]c2ccc(NS(=O)(=O)c3ccc(OC(F)(F)F)cc3)cc2c1-c1ccccc1 [Example 19, 3-phenyl-5-({[4-(trifluoromethoxy)phenyl]sulfonyl}amino)-1H-indole-2-carboxylic acid]
10% | 36% | – | CS(=O)(=O)Nc1ccc2c(c1)c(-c1ccccc1)c(C(=O)O)n2C(c1ccccc1)c1ccccc1 [Example 15, 1-benzhydryl-5-[(methylsulfonyl)amino]-3-phenyl-1H-indole-2-carboxylic acid]
